Data: patent publication US7655414B2, “Determination of responders to chemotherapy” (Hoffman La-Roche Inc., priority 2005, dated 2010)

Experiments:
[1] = test system: first-line NSCLC patients; settings: erlotinib 150 mg/day plus gemcitabine and cisplatin compared with gemcitabine and cisplatin alone; cited from earlier work
[2] = test system: non-small-cell lung cancer (NSCLC); settings: single-agent erlotinib, second- or third-line therapy; placebo 4.7 months; statistically significant improvement; cited from earlier work
[3] = test system: non-small-cell lung cancer (NSCLC); test: Clinical study BO16411: Tarceva plus gemcitabine/cisplatin versus placebo plus gemcitabine/cisplatin, with pMAPK/pAKT IHC biomarker subset; type: in vivo, human
Procedure: Biomarker analyses were performed on a sample subset of 141 patients, for which formalin-fixed paraffin embedded (FFPE) tissue blocks from initial diagnosis had been received.
One pathologist evaluated all immunostainings. The nuclear staining intensity (pAKT, pMAPK) was estimated by visual inspection in a four step scale (0, 1, 2, 3). In addition to nuclear staining intensity, the percentage of positive cells, and the reason for analysis failure (i.e. lack of tumor cells in the tissue spot or lack of the tissue spot on the TMA slide) was recorded. Exploratory Statistical Analysis:
The basic statistics and interdependencies of the different markers were descriptively investigated. Methodological analyses comparing different measurement approaches, e.g. for IHC, were performed with regard to reliability and validity.
The p-values emerging from these analyses are not to be interpreted in a confirmative sense; they are to be seen as a special descriptive tool in order to guide the exploration towards an efficient candidate prediction rule. Markers were evaluated on a univariate level regarding their potential for prediction (e.g. search for cut-offs) of the clinical endpoints. Further multivariate techniques (e.g. Linear Discriminant Analysis, Multiple Logistic Regression, Principal Component Analysis with Rotation, Cluster Analysis, CART methodology) were employed in order to study combinations of markers. Biomarker and response correlations with clinical covariates were investigated. Candidate groupings derived from biomarkers were checked with time to event variables (Kaplan-Meier curves, Cox proportional hazard model, logrank test).
The patient subset with samples for biomarker analysis was compared to the overall study population regarding baseline patient characteristics and clinical outcome parameters.
For determining correlation between pMAPK expression and clincal outcome, cut-off values were established by descriptive statistical analysis: Franklin H-score was determined by combining staining intensity and percentage of stained tumor cells (pMAPK_hsco=(pMAPK_Nuclear_Staining+1)*pMAPK_Nuclear_Pos_Cells; range: 0-400). “Positive” pMAPK staining was defined by H-scores of =/>100, else the staining was “negative”.
“Positive” pAKT staining was defined by H-scores of =/>300, else the staining was “negative”.

[4] = test system: NSCLC; settings: erlotinib plus carboplatin and paclitaxel; cited from earlier work

In the case of `C#Cc1cccc(Nc2ncnc3cc(OCCOC)c(OCCOC)cc23)c1` [Tarceva®, N-(3-ethynylphenyl)-6,7-bis(2-methoxyethoxy) quinazolin-4-amine], the “Benefit on primary (survival duration) and secondary endpoints” value [1] is listed as “no demonstrable benefit”, the Survival [2] is listed as 6.7 months and the “HR, benefit from chemotherapy/Tarceva combo” value ([3]; "Positive pMAPK" patients (H-score =/>100), p: 0.0516) is listed as 0.500. The “Hazard Ratio, time to progression/death” value ([3]; COX model without covariates, pAKT1 data set, trtgr only) was 1.269, the “Hazard Ratio, time to progression/death” value ([3]; COX model without covariates, pMAPK data set, trtgr only) was 1.320 and the “Hazard Ratio, time to progression/death” value ([3]; COX model, trtgr in patients with pAKT1 H-Score ≧ 300) was 1.262. The “Hazard Ratio, time to progression/death” value ([3]; COX model, trtgr in patients with pMAPK H-Score < 100) was 1.634, the “Hazard Ratio, time to progression/death” value ([3]; COX model, trtgr in patients with pMAPK H-Score ≧ 100) was 0.773 and the “Responders (%)” value ([3]; Main clinical population, Tarceva + gemcitabine/cisplatin arm (N = 396)) was 42.4%. For the same molecule, the “Responders (%)” value ([3]; Patient subset with IHC/FISH biomarker data, Tarceva + gemcitabine/cisplatin arm (N = 46)) was 43.5% and the “Outcome compared with TALENT (no benefit of adding erlotinib)” value [4] was “Identical results”.
